{
  "source": "patent US7589201B2",
  "about": "“Derivatives of 1,4-diazabicyclo[3.2.1]octanecarboxamide, preparation method thereof and use of same in therapeutics” (Sanofi-Aventis, priority 2004, dated 2009)",
  "key": {"[1]": {"biological_target": "nicotinic receptors containing the α4β2 subunit (Rattus norvegicus, UniProt P09483+P12390)", "sequence (P09483 31-630)": "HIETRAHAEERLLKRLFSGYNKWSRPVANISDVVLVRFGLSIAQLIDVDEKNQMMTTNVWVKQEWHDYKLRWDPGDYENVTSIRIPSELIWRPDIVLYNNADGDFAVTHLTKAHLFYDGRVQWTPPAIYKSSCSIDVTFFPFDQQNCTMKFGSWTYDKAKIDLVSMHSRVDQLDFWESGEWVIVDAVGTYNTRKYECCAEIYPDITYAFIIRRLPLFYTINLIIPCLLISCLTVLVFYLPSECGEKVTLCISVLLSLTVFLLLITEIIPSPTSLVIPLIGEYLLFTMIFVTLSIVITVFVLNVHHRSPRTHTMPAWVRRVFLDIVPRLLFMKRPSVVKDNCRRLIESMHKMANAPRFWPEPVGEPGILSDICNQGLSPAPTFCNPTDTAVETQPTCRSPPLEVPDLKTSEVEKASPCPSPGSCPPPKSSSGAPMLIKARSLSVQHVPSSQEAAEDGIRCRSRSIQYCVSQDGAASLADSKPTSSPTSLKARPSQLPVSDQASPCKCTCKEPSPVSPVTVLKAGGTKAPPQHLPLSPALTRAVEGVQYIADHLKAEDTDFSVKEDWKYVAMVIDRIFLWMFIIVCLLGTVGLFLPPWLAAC", "sequence (P12390 25-500)": "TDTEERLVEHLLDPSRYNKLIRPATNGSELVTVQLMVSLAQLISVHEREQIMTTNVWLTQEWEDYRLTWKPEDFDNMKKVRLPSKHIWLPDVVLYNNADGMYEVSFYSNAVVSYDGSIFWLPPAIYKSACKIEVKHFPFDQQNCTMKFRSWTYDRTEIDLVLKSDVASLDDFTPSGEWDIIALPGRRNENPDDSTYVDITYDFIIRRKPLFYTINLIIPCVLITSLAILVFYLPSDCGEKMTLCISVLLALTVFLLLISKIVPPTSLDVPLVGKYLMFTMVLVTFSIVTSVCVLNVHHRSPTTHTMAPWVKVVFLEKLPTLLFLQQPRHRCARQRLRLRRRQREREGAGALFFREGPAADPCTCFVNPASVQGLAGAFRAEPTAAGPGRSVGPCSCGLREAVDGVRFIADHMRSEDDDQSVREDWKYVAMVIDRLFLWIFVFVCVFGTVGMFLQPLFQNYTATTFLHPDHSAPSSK", "assay": "[3H]-cytisine binding to rat brain membranes, affinity for α4β2 nicotinic receptors", "conditions": "inhibition of specific binding of 1 nM [3H]-cytisine, rat whole brain membranes", "procedure": "For instance, they were studied with regard to their affinity for nicotinic receptors containing the α4β2 subunit in accordance with the methods described by Anderson and Arneric in Eur. J. Pharmacol. 1994, 253, 261 and by Hall et al. in Brain Res. 1993, 600, 127. Male Sprague Dawley rats weighing 150 to 200 g are decapitated and the whole brain is removed rapidly, homogenized in 15 volumes of 0.32 M sucrose solution at […] and then centrifuged at 1000 G for 10 min. The pellet is discarded and the supernatant is centrifuged at 20,000 G at 4° C. for 20 min. The pellet is recovered and homogenized using a Polytron™ mill in 15 volumes of double-distilled water at 4° C., then centrifuged at 8,000 G for 20 min. […]\nOn the day of the experiment the tissue is slowly thawed and is suspended in 3 volumes of buffer. […] The reaction is stopped by filtration on Whatman GF/B™ filters pretreated with polyethyleneimine, the filters are rinsed with twice 5 ml of buffer at 4° C. and the radioactivity retained on the filter is measured by liquid scintigraphy. The non-specific binding is determined in the presence of 10 μM (−)-nicotine; the nonspecific binding represents 75% to 85% of the total binding recovered on the filter. […]"}, "[2]": {"biological_target": "nicotinic receptors containing the α7 subunit (Rattus norvegicus, UniProt Q05941)", "sequence (Q05941 23-502)": "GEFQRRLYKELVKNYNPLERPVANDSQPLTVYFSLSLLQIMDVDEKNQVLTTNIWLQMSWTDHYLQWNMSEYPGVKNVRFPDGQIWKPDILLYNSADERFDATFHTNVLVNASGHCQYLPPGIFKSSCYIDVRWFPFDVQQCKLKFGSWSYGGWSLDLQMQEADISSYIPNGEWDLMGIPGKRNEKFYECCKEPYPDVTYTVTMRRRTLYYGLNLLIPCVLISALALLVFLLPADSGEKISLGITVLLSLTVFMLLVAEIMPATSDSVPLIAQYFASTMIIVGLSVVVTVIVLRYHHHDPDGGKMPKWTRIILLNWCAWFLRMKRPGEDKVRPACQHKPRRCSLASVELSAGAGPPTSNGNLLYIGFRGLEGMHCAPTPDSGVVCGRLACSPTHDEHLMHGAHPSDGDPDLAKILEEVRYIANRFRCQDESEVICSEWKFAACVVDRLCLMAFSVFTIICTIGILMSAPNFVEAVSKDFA", "assay": "biochemical", "type": "binding"}},
  "note": "Counter-ions that a name gives are not always drawn.",
  "data": [
    {"compound": "Cc1ccc2c(C(=O)N3CCN4CCC3C4)n[nH]c2n1", "note": "(racemic) [Compound 1, 3-(1,4-Diazabicyclo[3.2.1]oct-4-ylcarbonyl)-6-methyl-1H-pyrazolo[3,4-b]pyridine hydrobromide 2:1]", "values": [
      {"measurement": "IC50", "setting": "[1]", "value": "> 10000", "unit": "nM"},
      {"measurement": "IC50", "setting": "[2]", "value": 56, "unit": "nM"}
    ]},
    {"compound": "O=C(c1n[nH]c2ccc(F)cc12)N1CCN2CCC1C2", "note": "(racemic) [Compound 4, 3-(1,4-Diazabicyclo[3.2.1]oct-4-ylcarbonyl)-5-fluoro-1H-indazole hydrobromide 2:1]", "values": [
      {"measurement": "IC50", "setting": "[2]", "value": 55, "unit": "nM"}
    ]}
  ]
}
